Results published in patent US20230123635A1, “Compositions and Methods for Detecting Molecular Targets on Chromosomal DNA” (New England Biolabs, Inc., priority 2020, published 2023).

B1: Protein G-gHNH: NEFP: Protein G-linker-gHNH nicking endonuclease (SEQ ID NO: 5) (protein)
chain: MKGETTTEAVDAATAEKVFKQYANDNGVDGEWTYDDATKTFTVTEKPEVIDASELTPAVTTYKLVINGKTLKGETTTEAVDAATAEKVFKQYANDNGVDGEWTYDDATKTFTVTEKPEVIDASELTPAVTTYKLVINGKTLKGETTTKAVDAETAEKAFKQYANDNGVDGVWTYDDATKTFTVTEGSATIVKKPLRPCCEFHCYNLTRERYCEEHRYKEKETQQDKNRYYDRFKRDKESTAFYRSKAWERLREQALMRDKGLCLHCKNNRKIKVADMVDHIIPIKVDPSLKLKLENLQSLCNPCHNRKTAEDKKKYG

What was measured:
[1] = system: DNA-Nt.CviPII-Protein A complex; test: Gel-shift assay: dissociation of the DNA-Nt.CviPII-Protein A complex by heparin; assay type: binding; conditions: 3.2 μM Nt.CviPII-Protein A, NEBuffer 2 without magnesium, 50 μl
Method: Increasing amounts of heparin disrupts complex formation. Nicking activity is prevented by the absence of magnesium ions in the buffer.
From left to right: C is a control that is DNA in the absence of a NEFP or heparin. 0 is a control in which nicking endonuclease was added to DNA in the absence of heparin. The DNA-NEFP complex (DNA-Nt.CviPII-Protein A complex) is seen as a band at the top of the lane.
To establish that the inhibitory effect of heparin, sodium salt in untethered Nt.CviPII-Protein A fusion activity was due to selective dissociation between DNA substrate and fusion enzyme, a gel-shift assay was performed. Double stranded DNA substrate containing constant amounts of Nt.CviPII binding domains (CCA, 5′[…]-F, F=fluorescein (SEQ ID NO:9)) and 3.2 μM Nt.CviPII-Protein A fusion were combined in the presence of 1×NEBuffer 2 in the absence of magnesium for 30 minutes at room temperature to enable an enzyme-substrate complex to be formed. Increasing amounts of heparin, sodium salt (0, 2.3, 4.6, 1, 20, 42, 83, 166, 330 μg/ml) was added to the total 50 μl reaction volume. It was observed that a heparin concentration of greater than 0.2 mgs/ml (at least […]) enabled complete dissociation of the DNA-Nt.CviPII-Protein A complex as observed by the appearance of bands corresponding to DNA alone in a native 6% retardation gel (Thermo Fisher Scientific, Waltham, Mass.). […]

Nt.CviPII-Protein A = test: Inhibition of the nicking activity of Nt.CviPII-Protein A fusion by heparin sodium salt; assay type: biochemical; conditions: 2.5 units Nt.CviPII-Protein A, 0.5 μg pUC19 DNA, NEBuffer 2, 40 minutes 37° C.
Method: In lanes 1-9, 2.5 units of NEFP was added to 0.5 μgs of plasmid DNA in the presence of increasing amounts of heparin (0.15-10 mg/ml). Digestion was not observed when 0.3 mg heparin/ml or greater amounts are present.
To determine the effect of heparin sodium salt on the inhibition of nicking activities of Nt.CviPII-Protein A fusion, reaction tubes containing 10, 5, 2.5, 1.25, 0.62, 0.31, 0.15, and 0 mg/ml heparin, sodium salt were added to a 50 μl reaction, consisting of 5 μl 10×NEBuffer 2, 2.5 units Nt.CviPII-Protein A (as described in Example 1(B)), and 0.5 μg pUC19 DNA and incubated for 40 minutes 37° C. 10 μl of DNA loading dye mix (5×) was added to the samples and were resolved on a 10% polyacrylamide gel. The gel was stained with SYBR® Green (Molecular Probes, Eugene, Oreg.) and scanned on a Typhoon® imager (GE Healthcare Bio-Sciences, Marlborough, Mass.).

[2] = system: antibody-Protein A/G complex; test: Effect of heparin on the antibody-Protein A/G complex (magnetic beads, SDS gel); assay type: binding; conditions: 0.125, 0.25, 0.5 and 1 mg/ml Heparin, 30 minutes, room temperature, Protein A/G magnetic beads with IgG, sodium salt
Description: The numbers on the top indicate added heparin quantity in the reaction mgs/ml.
Antibody heavy and light chains that are bound to Protein A/G can be released by boiling and resolved on an SDS gel (B). Any antibody that was free in solution having been eluted or displaced by heparin from Protein A/G could be visualized without boiling (E).
To determine the effect of heparin on the formation of the antibody-Protein A/G complex, 5 mgs of immobilized and covalently cross-linked protein A/G magnetic beads were bound to 50 μgs of IgG molecules in a 50 μl reaction volume containing 1×PBST at room temperature for 30 minutes. The complex was washed 3 times using 1 ml of 1×PBST and incubated with 0.125, 0.25, 0.5 and 1 mg/ml Heparin for 30 minutes at room temperature in 25 μl total volume. The bead-bound (B) and unbound or bead elution (E) fractions were collected, SDS sample buffer (New England Biolabs, Ipswich, Mass.) was added and the samples were incubated at 95° C. for 5 minutes. Both B and E samples were resolved on tricine 10% acrylamide gel and stained for protein.

[3] = system: pBR322 circular double stranded DNA; test: Nicking activity of Protein G/A-gHNH fusion on plasmid DNA (agarose gel); assay type: biochemical; conditions: 50 μl, 37° C., 1 hour; for amount of fusion enzyme giving complete nicking/digestion of DNA substrate: 1 μg pBR322, NEBuffer 2 with manganese ions (1 mM) instead of magnesium
Method: The nicking activity of Protein G-HNH was compared to a second non-fused nicking endonuclease (Nt.CviPII) (2 units) in the same gel to determine a generalized and consistent cleavage profile and was also compared to a control in the lane labeled 0 containing no nicking endonuclease either fused or unfused.
Protein G/A-gHNH fusion nicking activity was tested on pBR322 circular double stranded DNA using NEBuffer 2 in which magnesium ions were replaced by the same amount of manganese ions (1 mM). 1 μg of plasmid was used with 0.03 to 2 units of Protein G/A-gHNH fusion enzyme in a two-fold serial dilutions (2, 1, 0.5, 0.25, 0.125, 0.06, 0.03 units) in a total volume of 50 μl incubated at 37° C. for 1 hour. 10 μl of DNA loading dye mix (5×) was added to the nicked DNA. The nicked DNA samples were resolved on a 1% agarose gel and visualized under UV light. DNA fragment size was estimated along with 2 log DNA ladder (New England Biolabs, Ipswich, Mass.) and positive control Nt.CviPII (2 units) of the non-fused nicking endonuclease, (New England Biolabs, Ipswich, Mass.) digested pBR322 DNA (FIG. 1B). […] A representative figure supporting this conclusion is provided in FIG. 1B for Protein G-gHNH fusions.

| Molecule | heparin concentration enabling complete dissociation of the DNA-Nt.CviPII-Protein A complex (parenthesis) [1] | heparin concentration enabling complete dissociation of the DNA-Nt.CviPII-Protein A complex ([1]; native 6% retardation gel) | heparin concentration giving total inhibition of nicking (no digestion observed) (Nt.CviPII-Protein A) | heparin concentration giving total inhibition of nicking (no digestion observed) (Nt.CviPII-Protein A; listed as Heparin sodium salt) | effect of heparin on antibody bound to Protein A/G ([2]; listed as Heparin) | effect of heparin on antibody bound to Protein A/G [2] | amount of fusion enzyme giving complete nicking/digestion of DNA substrate [3] | amount of fusion enzyme giving complete nicking/digestion of DNA substrate ([3]; listed as Protein G-gHNH fusion) | amount of fusion enzyme giving partial digestion of DNA ([3]; 1 μg pBR322, NEBuffer 2 with manganese ions) |
| --- | --- | --- | --- | --- | --- | --- | --- | --- | --- |
| heparin, sodium salt | at least 10 ng/μl | greater than 0.2 mgs/ml | ≥ 0.3 mg/mL | 0.15 to 0.31 mg/mL | cannot dissociate Protein A/G-antibody reaction | no elution or displacement of antibody occurred |  |  |  |
| B1 |  |  |  |  |  |  | 0.25 units | greater than 0.06 units | 0.03 units |
